Patent US20110092591A1, “PHENYL-PRENYL DERIVATIVES, OF MARINE AND SYNTHETIC ORIGIN, FOR THE TREATMENT OF COGNITIVE, NEURODEGENERATIVE OR NEURONAL DISEASES OR DISORDERS” (NOSCIRA S.A., priority 2008, published 2011)

Experiments:
Format in all cases: biochemical
[1] = target: T1, Recombinant human glycogen synthase kinase 3 beta (Homo sapiens, UniProt P49841); experiment: GSK-3 beta inhibition assay (33P-ATP, GS-2 peptide)
[2] = target: T2, rhBACE-1 β-Secretase recombinant human (Homo sapiens, UniProt P56817); experiment: BACE assay (FRET, fluorogenic peptide substrate); conditions: for % BACE Activity: percentage of the enzyme activity (remaining)
T2 construct: purchased R&D Systems 931-AS
T2 sequence (P56817 46-457 limits assumed): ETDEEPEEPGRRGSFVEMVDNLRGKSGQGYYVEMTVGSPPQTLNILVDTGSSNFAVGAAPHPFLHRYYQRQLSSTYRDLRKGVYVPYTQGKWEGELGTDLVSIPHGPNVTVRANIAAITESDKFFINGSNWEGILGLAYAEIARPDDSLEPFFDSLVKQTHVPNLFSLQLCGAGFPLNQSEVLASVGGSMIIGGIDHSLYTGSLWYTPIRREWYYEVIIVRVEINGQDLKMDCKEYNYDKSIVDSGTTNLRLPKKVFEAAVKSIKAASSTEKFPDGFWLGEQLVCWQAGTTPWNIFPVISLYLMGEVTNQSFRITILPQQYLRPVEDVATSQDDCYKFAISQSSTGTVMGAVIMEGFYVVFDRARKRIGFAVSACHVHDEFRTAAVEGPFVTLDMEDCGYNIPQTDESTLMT
Excerpt: The aim of this assay is to determine if a compound, either synthetic or of marine origin, is a BACE-1 inhibitor, to avoid the formation of Aβ. This assay is based on FRET technology (Fluorescence Resonance Energy Transfer). FRET is used to measure cleavage of a peptide substrate, among other uses. […] When a substrate peptide cleavage occurs, the energy balance is broken and all the donor fluorescence can be observed. The increase in fluorescence is linearly related to the rate of proteolysis (Gordon, G W et al., 1998). In this assay the reaction occurs between an enzyme, purified BACE-1, and a fluorogenic peptidic substrate who present the “Swedish mutation”. The peptide cleavage by BACE-1 produces fluorescence energy and enzymatic activity can be quantified.
The reagents which are used in this assay are the following:
rhBACE-1 β-Secretase recombinant human (R&D Systems. Ref. 931-AS).
Fluorogenic Peptide Substrate IV (R&D Systems. Ref. ES004).
Beta-SECRETASE INHIBITOR H-4848. (BACHEM. Ref. H-4848.0001).
The assay is carried out in a 96 wells microplate. The final concentration of substrate is 3.5 μM per well, and the enzyme concentration is 0.5 μg/ml. The final volume of the assay is 100 μl per well and all reagents are diluted in Reaction Buffer.
The compounds are tested at a concentration of 10^−5 and 10^−6 M. The control in the assay is the commercial inhibitor β-Secretase inhibitor H-4848 from BACHEM, which is tested at 300 nM. All the samples and controls are studied by duplicate.
The plate is mixed gently and changes in the fluorescence are measured using a fluorimeter plate reader, with 320 nm excitation filter and 405 nm emission filter. The temperature should be preferably maintained between 25 and 30° C. Measurements are carried out every ten minutes during an hour. The first measure is subtracted from the last to calculate the fluorescence increase, evaluating the enzymatic activity. The 100% activity is calculated as the mean of the results of wells without sample or inhibitor.
In the cases where abnormal effects in fluorescence were detected, BACE inhibition activity was assayed using BACE-1 (beta-Secretase) FRET ASSAY KIT (Invitrogen, Ref. P2985). Fluorescence was measured with a fluorimeter plate reader, with 544 nm excitation filter and 580 nm emission filter.
Further information regarding this assay may be found in the following references, which are incorporated by reference into the present application: • Andrau, D et al; “BACE1- and BACE2-expressing human cells: characterization of beta-Amyloid precursor protein-derived catabolites, design of a novel fluorimetric assay, and identification of new in vitro inhibitors”. J Biol Chem. 2003 Jul. 11; 278(28):25859-66. • Gordon, G W et al; “Quantitative fluorescence resonance energy transfer measurements using fluorescence microscopy.” Biophys J. 1998 May; 74:2702-13.
The compounds of formula (I) of the present invention where submitted to the above indicated assay, in order to determine their BACE activity inhibition. The results are indicated in Table I, in percentage of the enzyme activity.

[3] = target: T1, Recombinant human glycogen synthase kinase 3 beta; experiment: GSK-3 beta inhibition assay (33P-ATP, GS-2 peptide); conditions: 0.5 h, percentage of the enzyme activity (remaining), read-out: % Act. GSK-3 beta; for remaining activity at 25 µM: compound at 25 μM; for remaining activity at 50 µM: compound at 50 μM
Experimental: The GSK-3 beta activity of the compounds of formula (I) according to the present invention was determined by incubation of a mixture of recombinant human GSK-3 enzyme, a phosphate source and GSK-3 substrate in the presence and in the absence of the corresponding test compound, and by measuring the GSK-3 activity of this mixture. The compounds where tested at final concentrations of 25 and 50 μM.
Recombinant human glycogen synthase kinase 3 beta was assayed in MOPS 11 mM, pH 7.4, EDTA 0.2 mM, EGTA 1.25 mM, MgCl2 26.25 mM and sodium orthovanadate 0.25 mM in the presence of 62.5 μM of Phospho-Glycogen Synthase Peptide-2 (GS-2), 0.5 μCi gamma-^33P-ATP and unlabelled ATP at a final concentration of 12.5 μM. The final assay volume was 20 μl. After incubation for 30 minutes at 30° C., 15 μl aliquots were spotted onto P81 phosphocellulose papers. Filters were washed four times for at least 10 minutes each and counted with 1.5 ml of scintillation cocktail in a scintillation counter.
The compounds of formula (I) of the present invention where submitted to the above indicated assay, in order to determine their GSK-3 inhibition activity. The results are indicated in Table II, in percentage of the enzyme activity.

T1 sequence (P49841 whole entry): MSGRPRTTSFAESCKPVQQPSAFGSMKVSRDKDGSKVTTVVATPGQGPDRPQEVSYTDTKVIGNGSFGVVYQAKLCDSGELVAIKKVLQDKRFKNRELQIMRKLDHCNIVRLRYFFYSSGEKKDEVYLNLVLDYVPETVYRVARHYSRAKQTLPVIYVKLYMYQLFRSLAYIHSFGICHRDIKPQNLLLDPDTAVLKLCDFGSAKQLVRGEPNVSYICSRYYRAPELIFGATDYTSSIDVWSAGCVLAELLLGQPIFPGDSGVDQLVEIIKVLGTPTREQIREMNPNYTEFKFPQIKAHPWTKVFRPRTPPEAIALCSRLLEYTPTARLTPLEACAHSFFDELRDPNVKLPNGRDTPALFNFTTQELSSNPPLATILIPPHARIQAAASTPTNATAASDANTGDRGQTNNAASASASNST

Structure (SMILES)	IC50 [1] [µM]	% BACE Activity ([2]; compound at 1 μM) [%]	% BACE Activity ([2]; compound at 10 μM) [%]	remaining activity at 25 µM [3] [%]	remaining activity at 50 µM [3] [%]	IC50 ([2]; given in M) [µM]
CC(C)=CCC/C(C)=C/CC/C(C)=C/CC/C(C)=C/Cc1cc(C(=O)O)ccc1O [Compound 1, (2E,6E,10E)-4-Hydroxy-3-(3,7,11,15-tetramethyl-hexadeca-2,6,10,14-tetraenyl)-benzoic acid]	4.42	45 ± 21	0	5.43	2.82	
CC(C)=CCC/C(C)=C/CC/C(C)=C/CC/C(C)=C/Cc1cc(O)ccc1O [Compound 2]	12.5	100	13 ± 14	37.7	5.04	
C/C(=C\CC/C(C)=C/CC/C(C)=C/Cc1cc(C(=O)O)ccc1O)C/C=C/C(C)(C)O [Compound 3]	55.8			52.9	4.19	
CC(C)=CCC/C(C)=C/CC/C(C)=C/CC/C(C)=C/CC/C(C)=C/Cc1cc(O)ccc1O [Compound 4]	9.97			17.8	17.7	
COC(=O)c1ccc(O)c(C/C=C(\C)CC/C=C(\C)CC/C=C(\C)CCC=C(C)C)c1 [Compound 5]					70.8	
CC(C)=CCc1cc(C(=O)O)ccc1O [Compound 6]		100	100	71.6	78	
COCOc1ccc(C=O)cc1C/C=C(\C)CCC=C(C)C [Compound 8, (2E)-3-(3,7-dimethyl-octa-2,6-dienyl)-4-methoxymethoxy-benzaldehyde]	16	100	42 ± 5	33.5	3.08	
COCOc1ccc(C=O)cc1C/C=C(\C)CC/C=C(\C)CCC=C(C)C [Compound 9, (2E,6E)-4-methoxymethoxy-3-(3,7,11-trimethyl-dodeca-2,6,10-trienyl)-benzaldehyde]		94 ± 22	60 ± 16	61.3	5.75	37
CC(C)=CCC/C(C)=C/Cc1cc(C=O)ccc1O [Compound 11]	8.6	91 ± 6	44 ± 12	12.1	1.07	
CC(C)=CCC/C(C)=C/CC/C(C)=C/Cc1cc(C=O)ccc1O [Compound 12]	7.87	57 ± 2	41 ± 4	9.26	0.95	
CC(C)=CCC/C(C)=C/CC/C(C)=C/CC/C(C)=C/Cc1cc(C=O)ccc1O [Compound 13]	17.4	100	88 ± 8.5	52	4.71	
CC(C)=CCC/C(C)=C/Cc1cc(C(=O)O)ccc1O [Compound 14]		100	84 ± 6	75.7	60.3	
CC(C)=CCC/C(C)=C/CC/C(C)=C/Cc1cc(C(=O)O)ccc1O [Compound 15]	11	100	5 ± 9	24.6	3.27	
CC(C)=CCC/C(C)=C/CC/C(C)=C/CC/C(C)=C/Cc1cc(C(=O)OCc2ccccc2)ccc1OCc1ccccc1 [Compound 17]		100	100	71.9	52.1	
CCNC(=O)c1ccc(O)c(C/C=C(\C)CC/C=C(\C)CC/C=C(\C)CCC=C(C)C)c1 [Compound 18]		100	100	32.8	13.3	
COCOC(=O)c1ccc(OC(C)=O)c(C/C=C(\C)CC/C=C(\C)CC/C=C(\C)CCC=C(C)C)c1 [Compound 20, (2E,6E,10E)-4-Acetoxy-3-(3,7,11,15-tetramethyl-hexadeca-2,6,10,14-tetraenyl)-benzoic acid methoxymethyl ester]		100	100	51	17.7	
COCOc1ccc(C(=O)O)cc1C/C=C(\C)CCC=C(C)C [Compound 21]		88 ± 9	27 ± 3	100	79.9	
CC(C)=CCC/C(C)=C/CC/C(C)=C/Cc1cc(C=O)ccc1OCc1ccccc1 [Compound 23]		99 ± 2	88 ± 13	2.22	2.01	
CC(C)=CCC/C(C)=C/CC/C(C)=C/CC/C(C)=C/Cc1cc(C(=O)OCc2ccccc2)ccc1O [Compound 24]		100	100	49.7	22.8	
CC(C)=CCC/C(C)=C/CC/C(C)=C/Cc1cc(C(=O)O)ccc1OCc1ccccc1 [Compound 26]		100	100	71.4	41	
CC(C)=CCC/C(C)=C/Cc1cc(C(=O)O)ccc1OCc1ccccc1 [Compound 27]		34 ± 27	0 ± 0	85.1	65.8	
